Reference: patent US20100267561A1, “HERBICIDAL PYRIDAZINONE DERIVATIVES” (priority 2007, published 2010)
Like-named read-outs stand apart in the source and are kept apart here.

Tests used:
Assay type in all cases: in vivo
[1] = tested on: windgrass (Apera spica-venti); experiment: Test B postemergence plant response; conditions: Postemergence
Summary of the method: (§1)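 Visual injury score from 0 (none) to 100 (complete control) versus controls, taken 13 to 15 days after treatment in the greenhouse; chemicals applied postemergence, as formulated, to plants of 1- to 4-leaf stage (2 to 18 cm tall); dash denotes no test result.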

[2] = tested on: canarygrass (Phalaris minor); experiment: Test B postemergence plant response; conditions: Postemergence
Summary of the method: as §1

[3] = tested on: winter barley (Hordeum vulgare); experiment: Test B postemergence plant response; conditions: Postemergence
Summary of the method: as §1

[4] = tested on: chickweed (Stellaria media); experiment: Test B postemergence plant response; conditions: Postemergence
Summary of the method: as §1

[5] = tested on: morningglory (Ipomoea coccinea); experiment: Test A pre-/postemergence plant response; conditions: 1000 g ai/ha
Summary of the method: (§2)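 Ratings run 0–100 (100 = complete control), assigned visually against untreated controls roughly 10 days after treatment in a greenhouse. Compounds, formulated in non-phytotoxic solvent containing surfactant, were applied as a soil-directed preemergence spray and concurrently postemergence to one- to two-leaf plants 2–10 cm tall.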

[6] = tested on: pigweed (Amaranthus retroflexus); experiment: Test A pre-/postemergence plant response; conditions: Amaranthus retroflexus, 240 h, 1000 g ai/ha, read-out: Plant response rating, Pigweed
Summary of the method: as §2

[7] = tested on: velvetleaf (Abutilon theophrasti); experiment: Test A pre-/postemergence plant response; conditions: 1000 g ai/ha
Summary of the method: as §2

[8] = tested on: barnyardgrass (Echinochloa crus-galli); experiment: Test A pre-/postemergence plant response; conditions: Echinochloa crus-galli, 240 h, 1000 g ai/ha, read-out: Plant response rating, Barnyardgrass
Summary of the method: as §2

corn (Zea mays) = experiment: Test A pre-/postemergence plant response; conditions: Zea mays, 240 h, 1000 g ai/ha
Summary of the method: as §2

[9] = tested on: large crabgrass (Digitaria sanguinalis); experiment: Test A pre-/postemergence plant response; conditions: Digitaria sanguinalis, 240 h, 1000 g ai/ha, read-out: Plant response rating, Crabgrass, Large
Summary of the method: as §2

[10] = tested on: wheat (Triticum aestivum); experiment: Test A pre-/postemergence plant response; conditions: Triticum aestivum, 240 h, 1000 g ai/ha, read-out: Plant response rating, Wheat
Summary of the method: as §2

rice (Oryza sativa) = experiment: Test B flooded paddy test plant response; conditions: Oryza sativa, read-out: Plant response rating, Rice
Summary of the method: (§3)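 2-leaf plants; pots flooded 3 cm above soil; compound added to paddy water; depth maintained. Greenhouse 13–15 d. Visual rating vs controls, 0 (no effect) to 100 (complete control); dash = no result.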

[11] = tested on: barnyardgrass (Echinochloa crus-galli); experiment: Test B flooded paddy test plant response; conditions: Echinochloa crus-galli, read-out: Plant response rating, Barnyardgrass
Summary of the method: as §3

[12] = tested on: ducksalad (Heteranthera limosa); experiment: Test B flooded paddy test plant response; conditions: Heteranthera limosa, read-out: Plant response rating, Ducksalad
Summary of the method: as §3

[13] = tested on: umbrella sedge (Cyperus difformis); experiment: Test B flooded paddy test plant response; conditions: Cyperus difformis, read-out: Plant response rating, Sedge, Umbrella
Summary of the method: as §3

[14] = 31 g ai/ha, scale 0 to 100, 0 no effect, 100 complete control
[15] = Postemergence, 0 to 100 scale, 0 no effect, 100 complete control
[16] = Preemergence, 0 to 100 scale (0 no effect, 100 complete control)
[17] = post-emergence, Postemergence, 0 to 100 scale, 0 no effect, 100 complete control
[18] = pre-emergence, Preemergence, 0 to 100 scale (0 no effect, 100 complete control)
[19] = Flood (flooded paddy test), 62 g ai/ha, scale 0 to 100, 0 no effect, 100 complete control
[20] = Flood (flooded paddy test), 125 g ai/ha, scale 0 to 100, 0 no effect, 100 complete control
[21] = Flood (flooded paddy test), 250 g ai/ha, scale 0 to 100, 0 no effect, 100 complete control
[22] = Flood, 31 g ai/ha, scale 0 to 100

Cc1cc(-c2ccc(C(F)(F)F)cc2)nn1-c1c(O)cnn(C)c1=O [Compound 1, 5-hydroxy-2-methyl-4-[5-methyl-3-[4-(trifluoromethyl)phenyl]-1H-pyrazol-1-yl]-3(2H)-pyridazinone]
Plant response rating, Windgrass [1, 14]: 95
Plant response rating, Windgrass ([1]; 62 g ai/ha, scale 0 to 100): 100
Plant response rating, Windgrass ([1]; 125 g ai/ha, scale 0 to 100): 100
Plant response rating, Windgrass ([1]; 250 g ai/ha, scale 0 to 100): 100
Plant response rating, Canarygrass [2, 14]: 0
Plant response rating, Canarygrass ([2]; 62 g ai/ha, scale 0 to 100): 0
Plant response rating, Canarygrass ([2]; 125 g ai/ha, scale 0 to 100): 0
Plant response rating, Canarygrass ([2]; 250 g ai/ha, scale 0 to 100): 40
Plant response rating, Barley [3, 14]: 0
Plant response rating, Barley ([3]; 62 g ai/ha, scale 0 to 100): 0
Plant response rating, Barley ([3]; 125 g ai/ha, scale 0 to 100): 0
Plant response rating, Barley ([3]; 250 g ai/ha, scale 0 to 100): 30
Plant response rating, Chickweed [4, 14]: 0
Plant response rating, Chickweed ([4]; 62 g ai/ha, scale 0 to 100): 0
Plant response rating, Chickweed ([4]; 125 g ai/ha, scale 0 to 100): 0
Plant response rating, Chickweed ([4]; 250 g ai/ha, scale 0 to 100): 5
Plant response rating, Morningglory [5, 15]: 60
Plant response rating, Morningglory [5, 16]: 0
pest or weed control at 1000 g/ha [6, 17]: 30%
pest or weed control at 1000 g/ha [6, 18]: 20%
Plant response rating, Velvetleaf [7, 15]: 60
Plant response rating, Velvetleaf [7, 16]: 0
pest or weed control at 1000 g/ha [8, 17]: 100%
pest or weed control at 1000 g/ha [8, 18]: 100%
Corn plant response rating (crop injury, 0 = no effect, 100 = complete kill) at 1000 g/ha (corn (Zea mays); [17]): 100%
Corn plant response rating (crop injury, 0 = no effect, 100 = complete kill) at 1000 g/ha (corn (Zea mays); [18]): 100%
pest or weed control at 1000 g/ha [9, 17]: 100%
pest or weed control at 1000 g/ha [9, 18]: 90%
plant injury at 1000 g/ha [10, 17]: 100%
plant injury at 1000 g/ha [10, 18]: 90%
plant injury at 62 g/ha (rice (Oryza sativa); [19]): 0%
plant injury at 125 g/ha (rice (Oryza sativa); [20]): 0%
plant injury at 250 g/ha (rice (Oryza sativa); [21]): 50%
plant injury at 31 g/ha (rice (Oryza sativa); [22]): 0%
pest or weed control at 62 g/ha [11, 19]: 0%
pest or weed control at 125 g/ha [11, 20]: 20%
pest or weed control at 250 g/ha [11, 21]: 60%
pest or weed control at 31 g/ha [11, 22]: 0%
pest or weed control at 62 g/ha [12, 19]: 0%
pest or weed control at 125 g/ha [12, 20]: 0%
pest or weed control at 250 g/ha [12, 21]: 30%
pest or weed control at 31 g/ha [12, 22]: 0%
pest or weed control at 62 g/ha [13, 19]: 40%
pest or weed control at 125 g/ha [13, 20]: 40%
pest or weed control at 250 g/ha [13, 21]: 60%
pest or weed control at 31 g/ha [13, 22]: 0%
